Data published in ChEMBL document CHEMBL3046609, “Herbicidal properties of the thaxtomin group of phytotoxins” (2001).
The source made the active and inactive calls.

Tests used:
[1] = system: Agrostis stolonifera var. palustris; assay: Herbicidal activity against Agrostis stolonifera var. palustris assessed as visual injury at 0.2 ppm after 9 days relative to control; assay type: functional
Helianthus annuus [2] = assay: Herbicidal activity against Helianthus annuus (sunflower) assessed as visual injury at 1 ug/seedling applied to meristem after 1 week relative to control; assay type: functional
Helianthus annuus [3] = assay: Herbicidal activity against Helianthus annuus (sunflower) assessed as visual injury at 1 ug/seedling applied to cotyledon after 1 week relative to control; assay type: functional
Ipomoea hederacea [4] = assay: Pre-emergence herbicidal activity against Ipomoea hederacea (ivy-leaved morning glory) assessed as visual injury at 4 kg/ha after 16 days relative to control; assay type: functional
Echinochloa crus-galli [5] = assay: Pre-emergence herbicidal activity against Echinochloa crus-galli (barnyard grass) assessed as visual injury at 1 kg/ha after 16 days relative to control; assay type: functional
Ipomoea hederacea [6] = assay: Post-emergence herbicidal activity against Ipomoea hederacea (ivy-leaved morning glory) after 9 days; assay type: functional
Ipomoea hederacea [7] = assay: Pre-emergence herbicidal activity against Ipomoea hederacea (ivy-leaved morning glory) after 16 days; assay type: functional
Echinochloa crus-galli [8] = assay: Pre-emergence herbicidal activity against Echinochloa crus-galli (barnyard grass) assessed as meristematic at 0.5 to 4 kg/ha after 16 days; assay type: functional, organism-based
Helianthus annuus [9] = assay: Post-emergence growth inhibition of Helianthus annuus (sunflower) assessed as visual injury at 1 kg/ha after 9 days relative to control; assay type: functional; set-up: scale not given: the % may be the effect or the level left
Ipomoea hederacea [10] = assay: Herbicidal activity against Ipomoea hederacea (ivy-leaved morning glory) assessed as visual injury at 10 ug/seedling applied to cotyledon after 1 week relative to control; assay type: functional
[11] = system: Agrostis stolonifera var. palustris; assay: Herbicidal activity against Agrostis stolonifera var. palustris assessed as visual injury at 5 ppm after 9 days relative to control; assay type: functional
Echinochloa crus-galli [12] = assay: Pre-emergence herbicidal activity against Echinochloa crus-galli (barnyard grass) assessed as visual injury at 2 kg/ha after 16 days relative to control; assay type: functional
Helianthus annuus [13] = assay: Pre-emergence growth inhibition of Helianthus annuus (sunflower) assessed as visual injury at 1 kg/ha after 16 days relative to control; assay type: functional; set-up: scale not given: the % may be the effect or the level left
Helianthus annuus [14] = assay: Herbicidal activity against Helianthus annuus (sunflower) assessed as visual injury at 100 ug/seedling applied to meristem after 1 week relative to control; assay type: functional
Avena fatua [15] = assay: Pre-emergence growth inhibition of Avena fatua assessed as visual injury at 2 kg/ha after 16 days relative to control; assay type: functional; set-up: scale not given: the % may be the effect or the level left
Echinochloa crus-galli [16] = assay: Post-emergence herbicidal activity against Echinochloa crus-galli (barnyard grass) assessed as visual injury at 4 kg/ha after 9 days relative to control; assay type: functional
Avena fatua [17] = assay: Post-emergence growth inhibition of Avena fatua assessed as stunting at 0.5 to 4 kg/ha after 9 days; assay type: functional, organism-based
[18] = system: Agrostis stolonifera var. palustris; assay: Herbicidal activity against Agrostis stolonifera var. palustris assessed as root tip puffing after 9 days by agarose-based test; assay type: functional, organism-based
Avena fatua [19] = assay: Post-emergence growth inhibition of Avena fatua after 9 days; assay type: functional
Echinochloa crus-galli [20] = assay: Pre-emergence herbicidal activity against Echinochloa crus-galli (barnyard grass) after 16 days; assay type: functional
Arabidopsis thaliana [21] = assay: Growth inhibition of Arabidopsis thaliana var. Columbia assessed as stunting after 9 days by agarose-based test; assay type: functional, organism-based
Ipomoea hederacea [22] = assay: Post-emergence herbicidal activity against Ipomoea hederacea (ivy-leaved morning glory) assessed as meristematic at 0.5 to 4 kg/ha after 9 days; assay type: functional, organism-based
Avena fatua [23] = assay: Pre-emergence growth inhibition of Avena fatua assessed as meristematic at 0.5 to 4 kg/ha after 16 days; assay type: functional, organism-based
[24] = system: Agrostis stolonifera var. palustris; assay: Herbicidal activity against Agrostis stolonifera var. palustris assessed as stunting after 9 days by agarose-based test; assay type: functional, organism-based
Helianthus annuus [25] = assay: Post-emergence growth inhibition of Helianthus annuus (sunflower) assessed as stunting at 0.5 to 4 kg/ha after 9 days; assay type: functional, organism-based
Ipomoea hederacea [26] = assay: Herbicidal activity against Ipomoea hederacea (ivy-leaved morning glory) assessed as visual injury at 1 ug/seedling applied to meristem after 1 week relative to control; assay type: functional
[27] = system: Agrostis stolonifera var. palustris; assay: Herbicidal activity against Agrostis stolonifera var. palustris assessed as visual injury at 0.008 ppm after 9 days relative to control; assay type: functional
Lemna minor = assay: Herbicidal activity against Lemna minor (common duckweed) assessed as visual injury at 1 ppm after 9 days relative to control; assay type: functional
Abutilon theophrasti = assay: Herbicidal activity against Abutilon theophrasti (velvetleaf) assessed as visual injury at 100 ug/seedling applied to meristem after 1 week relative to control; assay type: functional
Ipomoea hederacea [28] = assay: Pre-emergence herbicidal activity against Ipomoea hederacea (ivy-leaved morning glory) assessed as meristematic at 0.5 to 4 kg/ha after 16 days; assay type: functional, organism-based
Avena fatua [29] = assay: Pre-emergence growth inhibition of Avena fatua assessed as visual injury at 1 kg/ha after 16 days relative to control; assay type: functional; set-up: scale not given: the % may be the effect or the level left
Ipomoea hederacea [30] = assay: Post-emergence herbicidal activity against Ipomoea hederacea (ivy-leaved morning glory) assessed as visual injury at 2 kg/ha after 9 days relative to control; assay type: functional
Helianthus annuus [31] = assay: Pre-emergence growth inhibition of Helianthus annuus (sunflower) after 16 days; assay type: functional
Arabidopsis thaliana [32] = assay: Growth inhibition of Arabidopsis thaliana var. Columbia assessed as root tip puffing after 9 days by agarose-based test; assay type: functional, organism-based
Avena fatua [33] = assay: Pre-emergence growth inhibition of Avena fatua after 16 days; assay type: functional
Ipomoea hederacea [34] = assay: Post-emergence herbicidal activity against Ipomoea hederacea (ivy-leaved morning glory) assessed as wilting at 0.5 to 4 kg/ha after 9 days; assay type: functional, organism-based
Ipomoea hederacea [35] = assay: Pre-emergence herbicidal activity against Ipomoea hederacea (ivy-leaved morning glory) assessed as visual injury at 1 kg/ha after 16 days relative to control; assay type: functional
Echinochloa crus-galli [36] = assay: Pre-emergence herbicidal activity against Echinochloa crus-galli (barnyard grass) assessed as visual injury at 0.5 kg/ha after 16 days relative to control; assay type: functional
Echinochloa crus-galli [37] = assay: Post-emergence herbicidal activity against Echinochloa crus-galli (barnyard grass) assessed as visual injury at 1 kg/ha after 9 days relative to control; assay type: functional
[38] = system: Agrostis stolonifera var. palustris; assay: Herbicidal activity against Agrostis stolonifera var. palustris after 9 days; assay type: functional
Ipomoea hederacea [39] = assay: Post-emergence herbicidal activity against Ipomoea hederacea (ivy-leaved morning glory) assessed as visual injury at 0.5 kg/ha after 9 days relative to control; assay type: functional
Ipomoea hederacea [40] = assay: Herbicidal activity against Ipomoea hederacea (ivy-leaved morning glory) assessed as visual injury at 10 ug/seedling applied to meristem after 1 week relative to control; assay type: functional
Ipomoea hederacea [41] = assay: Herbicidal activity against Ipomoea hederacea (ivy-leaved morning glory) assessed as visual injury at 1 ug/seedling applied to cotyledon after 1 week relative to control; assay type: functional
Ipomoea hederacea [42] = assay: Post-emergence herbicidal activity against Ipomoea hederacea (ivy-leaved morning glory) assessed as stunting at 0.5 to 4 kg/ha after 9 days; assay type: functional, organism-based
Ipomoea hederacea [43] = assay: Pre-emergence herbicidal activity against Ipomoea hederacea (ivy-leaved morning glory) assessed as visual injury at 0.5 kg/ha after 16 days relative to control; assay type: functional
Avena fatua [44] = assay: Pre-emergence growth inhibition of Avena fatua assessed as visual injury at 4 kg/ha after 16 days relative to control; assay type: functional; set-up: scale not given: the % may be the effect or the level left
Helianthus annuus [45] = assay: Herbicidal activity against Helianthus annuus (sunflower) assessed as visual injury at 10 ug/seedling applied to cotyledon after 1 week relative to control; assay type: functional
Echinochloa crus-galli [46] = assay: Pre-emergence herbicidal activity against Echinochloa crus-galli (barnyard grass) assessed as visual injury at 4 kg/ha after 16 days relative to control; assay type: functional
Avena fatua [47] = assay: Pre-emergence growth inhibition of Avena fatua assessed as stunting at 0.5 to 4 kg/ha after 16 days; assay type: functional, organism-based

CN1C(=O)[C@](O)(Cc2cccc(O)c2)N(C)C(=O)[C@@H]1Cc1c[nH]c2cccc([N+](=O)[O-])c12 [THAXTOMIN A]
active: Activity (Echinochloa crus-galli [8]) | Activity (Avena fatua [17]) | Activity [18] | growth inhibition (GI) (Arabidopsis thaliana [21]) | Activity (Ipomoea hederacea [22]) | Activity (Avena fatua [23]) | Activity [24] | Activity (Helianthus annuus [25]) | Activity (Ipomoea hederacea [28]) | growth inhibition (GI) (Arabidopsis thaliana [32]) | Activity (Ipomoea hederacea [34]) | Activity (Ipomoea hederacea [42]) | Activity (Avena fatua [47])
12 ppb: GR50 [38]
50%: Activity (Helianthus annuus [2]) | Activity [27]
2 kg/ha: GR50 (Avena fatua [19])
100%: Activity [1] | Activity (Ipomoea hederacea [4]) | Activity [11] | Activity (Echinochloa crus-galli [12]) | Activity (Helianthus annuus [13]) | Activity (Avena fatua [15]) | Activity (Lemna minor) | Activity (Avena fatua [29]) | Activity (Ipomoea hederacea [35]) | Activity (Ipomoea hederacea [43]) | Activity (Avena fatua [44]) | Activity (Echinochloa crus-galli [46])
70%: Activity (Ipomoea hederacea [39])
0%: Activity (Helianthus annuus [3]) | Activity (Ipomoea hederacea [10]) | Activity (Ipomoea hederacea [41]) | Activity (Helianthus annuus [45])
80%: Activity (Abutilon theophrasti) | Activity (Ipomoea hederacea [30]) | Activity (Ipomoea hederacea [40])
<500 g/ha: GR50 (Ipomoea hederacea [6]) | GR50 (Ipomoea hederacea [7]) | GR50 (Echinochloa crus-galli [20]) | GR50 (Helianthus annuus [31]) | GR50 (Avena fatua [33])
75%: Activity (Ipomoea hederacea [26])
20%: Activity (Echinochloa crus-galli [37])
90%: Activity (Helianthus annuus [14])
85%: Activity (Helianthus annuus [9]) | Activity (Echinochloa crus-galli [16])
98%: Activity (Echinochloa crus-galli [5]) | Activity (Echinochloa crus-galli [36])
